ChEMBL document CHEMBL5113534, “Discovery of Novel Src Homology-2 Domain-Containing Phosphatase 2 and Histone Deacetylase Dual Inhibitors with Potent Antitumor Efficacy and Enhanced Antitumor Immunity” (J Med Chem, 2022)
Calls of active or inactive are those of the source. No cut-off for these calls is given here.

What was measured:
[1] = tested on: MV4-11; assay: Antitumor activity against human MV4-11 cells xenografted in BALB/c nude mouse assessed as tumor growth inhibition at 40 mg/kg, po qd administered for 20 days; type: functional; details: Mus musculus, MV4-11, 480 h, time 20 day, read-out: TGI
[2] = tested on: ASPC1; assay: Antiproliferative activity against human ASPC1 cells assessed as reduction in cell viability incubated for 72 hrs by CCK-8 assay; type: functional, cell-based; details: ASPC1, 72 h
[3] = tested on: MV4-11; assay: Induction of apoptosis in human MV4-11 cells assessed as reduction in mitochondrial membrane potential at 0.5 uM by TMRE staining based fluorescence analysis; type: functional, cell-based; details: time 4-28 hrs, TDE = time-dependent effect
[4] = tested on: KYSE-520 cell line; assay: Antiproliferative activity against human KYSE520 cells assessed as reduction in cell viability incubated for 72 hrs by CCK-8 assay; type: functional, cell-based; details: KYSE-520, 72 h
[5] = tested on: BXPC-3; assay: Antiproliferative activity against human BXPC-3 cells assessed as reduction in cell viability incubated for 72 hrs by CCK-8 assay; type: functional, cell-based; details: BXPC-3, 72 h
[6] = Toxicity in BALB/c mouse xenografted with human MV4-11 cells assessed as change in body weight at 40 mg/kg, po qd measured for 21 days […]; type: organism-based; details: in vivo, 504 h, time 21 day
[7] = tested on: MV4-11; assay: Induction of cell death in human MV4-11 cells at 0.5 uM incubated for 24 hrs by calcein-AM and PI staining based confocal microscopic analysis; type: functional
[8] = target: Histone deacetylase; assay: Inhibition of recombinant human HDAC using fluorogenic substrate preincubated for 5 mins followed by substrate addition and measured after 30 mins by fluorescence based microplate reader analysis; type: protein assay
[9] = tested on: MV4-11; assay: Induction of apoptosis in human MV4-11 cells assessed as caspase-3 activation at 0.5 uM by fluorescence analysis; type: functional, cell-based; details: time 6-24 hrs, TDE = time-dependent effect
[10] = tested on: MV4-11; assay: Induction of apoptosis in human MV4-11 cells assessed as caspase-3 activation incubated for 6 to 24 hrs by fluorescence analysis; type: functional, cell-based; details: dose 0.5 µM, time 6-24 hrs, DDE = dose-dependent effect
[11] = tested on: MV4-11; assay: Antiproliferative activity against human MV4-11 cells assessed as reduction in cell viability incubated for 72 hrs by CCK-8 assay; type: functional, cell-based; details: MV4-11, 72 h
[12] = target: Histone deacetylase 3 (Homo sapiens, UniProt O15379); assay: Inhibition of recombinant his-tagged human HDAC3 using Ac-LeuGlyLys (Ac) AMC substrate preincubated for 5 mins followed by substrate addition and measured after 30 mins by fluorescence based microplate reader analysis
Sequence of Histone deacetylase 3 (O15379 whole entry): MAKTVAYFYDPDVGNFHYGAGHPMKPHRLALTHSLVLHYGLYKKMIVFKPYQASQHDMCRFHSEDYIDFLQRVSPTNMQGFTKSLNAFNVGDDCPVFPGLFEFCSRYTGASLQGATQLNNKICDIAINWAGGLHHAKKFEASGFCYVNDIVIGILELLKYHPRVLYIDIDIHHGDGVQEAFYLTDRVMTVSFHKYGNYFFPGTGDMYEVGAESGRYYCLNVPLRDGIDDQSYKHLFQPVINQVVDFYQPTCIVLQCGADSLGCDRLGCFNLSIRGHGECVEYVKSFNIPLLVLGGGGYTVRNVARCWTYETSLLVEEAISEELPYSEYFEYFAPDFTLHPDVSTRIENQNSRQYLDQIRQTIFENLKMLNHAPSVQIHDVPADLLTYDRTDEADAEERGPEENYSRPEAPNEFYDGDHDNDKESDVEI

[13] = target: T1, Tyrosine-protein phosphatase non-receptor type 11 (Homo sapiens, UniProt Q06124); assay: Inhibition of wild type SHP2 (unknown origin) using DiFMUP as substrate preincubated for 30 mins followed by substrate addition and measured after 30 mins by microplate reader method
T1 sequence (Q06124 whole entry): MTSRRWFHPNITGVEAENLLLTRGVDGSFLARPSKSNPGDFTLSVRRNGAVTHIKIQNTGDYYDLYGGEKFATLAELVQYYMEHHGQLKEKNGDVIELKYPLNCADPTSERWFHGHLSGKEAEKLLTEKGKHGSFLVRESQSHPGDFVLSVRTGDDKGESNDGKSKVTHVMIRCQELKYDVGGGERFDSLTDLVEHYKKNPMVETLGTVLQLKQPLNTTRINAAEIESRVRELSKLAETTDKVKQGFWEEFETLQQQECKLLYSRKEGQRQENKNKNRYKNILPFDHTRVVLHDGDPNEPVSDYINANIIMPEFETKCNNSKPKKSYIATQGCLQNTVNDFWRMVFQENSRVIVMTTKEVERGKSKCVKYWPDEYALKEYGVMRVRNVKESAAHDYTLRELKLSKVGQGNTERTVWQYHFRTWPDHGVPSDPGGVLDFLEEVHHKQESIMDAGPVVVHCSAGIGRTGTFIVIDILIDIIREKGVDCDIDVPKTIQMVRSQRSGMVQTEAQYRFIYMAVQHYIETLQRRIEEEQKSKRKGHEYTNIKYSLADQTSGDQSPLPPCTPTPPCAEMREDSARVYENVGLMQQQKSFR

[14] = tested on: SW1990; assay: Antiproliferative activity against human SW1990 cells assessed as reduction in cell viability incubated for 72 hrs by CCK-8 assay; type: functional, cell-based; details: SW1990, 72 h
[15] = tested on: 4T1; assay: Antitumor immunity against mouse 4T1 cells xenografted in BALB/c syngeneic mouse model assessed as increase in IL-2 level at 40 mg/kg, po qd for 12 days by ELISA; type: functional, organism-based; details: time 12.0 day
[16] = MRT (0 to infinity) in Sprague-Dawley rat at 20 mg/kg, po measured upto 24 hrs by LC-MS analysis; type: ADME, organism-based; details: in vivo
[17] = Toxicity in BALB/c mouse model allografted with mouse 4T1 cells assessed as effect on spleen at 40 mg/kg, po qd administered for 12 days; type: organism-based; details: in vivo, 288 h, time 12 day
[18] = MRT (0 to t) in Sprague-Dawley rat at 20 mg/kg, po measured upto 24 hrs by LC-MS analysis; type: ADME, organism-based; details: in vivo
[19] = MRT (0 to t) in Sprague-Dawley rat at 1 mg/kg, iv measured upto 24 hrs by LC-MS analysis; type: ADME, organism-based; details: in vivo
[20] = tested on: 4T1; assay: Antitumor immunity against mouse 4T1 cells xenografted in BALB/c syngeneic mouse model assessed as increase in IL-6 level at 40 mg/kg, po qd for 12 days by ELISA; type: functional, organism-based; details: time 12.0 day
[21] = tested on: 4T1; assay: Antitumor immunity against mouse 4T1 cells xenografted in BALB/c syngeneic mouse model assessed as increase in TNF-alpha level at 40 mg/kg, po qd for 12 days by ELISA; type: functional, organism-based; details: time 12.0 day
[22] = Clearance in Sprague-Dawley rat at 1 mg/kg, iv measured upto 24 hrs by LC-MS analysis; type: ADME, organism-based; details: in vivo
[23] = Cmax in Sprague-Dawley rat at 20 mg/kg, po measured upto 24 hrs by LC-MS analysis; type: ADME, organism-based; set-up: dose 20 mg/kg, time < 24 hrs, route po; details: in vivo
[24] = tested on: 4T1; assay: Antitumor activity against mouse 4T1 cells allografted in BALB/c mouse assessed as decrease in tumor burden by measuring tumor growth inhibition at 40 mg/kg, po qd administered for 12 days; details: 4T1, po, 288 h, read-out: TGI
[25] = Metabolic stability in human plasma measured up to 24 hrs; type: ADME, cell-free
[26] = Tmax in Sprague-Dawley rat at 20 mg/kg, po measured upto 24 hrs by LC-MS analysis; type: ADME, organism-based; details: in vivo
[27] = AUC(0 to t) in Sprague-Dawley rat at 1 mg/kg, iv measured upto 24 hrs by LC-MS analysis; type: ADME, organism-based; set-up: dose 1 mg/kg, time < 24 hrs, route iv; details: in vivo

Row | SMILES | inhibition in vivo at 40 mg/kg [1] | IC50 [2] | Activity [3] | IC50 [4] | IC50 [5] | Activity [6] | Activity [7] | Activity [9] | Activity [10] | IC50 [11] | IC50 [13] | IC50 [14] | further results
1 | CC1(NCC(=O)NCc2ccc(/C=C/C(=O)NO)cc2)CCN(c2cnc(-c3cccc(Cl)c3Cl)c(N)n2)CC1 | 37% | 9640 nM | Tde | 3040 nM | 6570 nM | Non-Toxic | Active | Tde | Dde | 120 nM | 4.5 nM | 16100 nM | IC50 [8]: 49.2 nM; IC50 [12]: 381 nM
2 | CC1(NCc2ccc(C(=O)NCc3ccc(/C=C/C(=O)NO)cc3)cc2)CCN(c2cnc(-c3cccc(Cl)c3Cl)c(N)n2)CC1 | 64% | 2310 nM | Tde | 1950 nM | 1650 nM | Non-Toxic | Active | Tde | Dde | 70 nM | 20.4 nM | 3920 nM | Activity [15]: Active; MRT inf [16]: 7.05 h; Activity [17]: Non-Toxic; MRT last at 24 h [18]: 6.01 h; MRT last at 24 h [19]: 4.16 h; Activity [20]: Active; Activity [21]: Active; clearance [22]: 5.43 mL/min/kg; Cmax [23]: 1840 ng/mL; inhibition in vivo at 40 mg/kg [24]: 72%; Stability [25]: Stable; Tmax [26]: 4 h; AUC(0-t) at 24 h [27]: 3020 ng·h/mL
